Experiment [1] addresses T1, CPT1 liver (Rattus norvegicus, UniProt P32198).
T1 construct: fresh mitochondrial preparations obtained from the liver or heart of Fischer rats; from tissue; host or cells: liver mitochondria of Fischer rats
T1 sequence (P32198 1-773): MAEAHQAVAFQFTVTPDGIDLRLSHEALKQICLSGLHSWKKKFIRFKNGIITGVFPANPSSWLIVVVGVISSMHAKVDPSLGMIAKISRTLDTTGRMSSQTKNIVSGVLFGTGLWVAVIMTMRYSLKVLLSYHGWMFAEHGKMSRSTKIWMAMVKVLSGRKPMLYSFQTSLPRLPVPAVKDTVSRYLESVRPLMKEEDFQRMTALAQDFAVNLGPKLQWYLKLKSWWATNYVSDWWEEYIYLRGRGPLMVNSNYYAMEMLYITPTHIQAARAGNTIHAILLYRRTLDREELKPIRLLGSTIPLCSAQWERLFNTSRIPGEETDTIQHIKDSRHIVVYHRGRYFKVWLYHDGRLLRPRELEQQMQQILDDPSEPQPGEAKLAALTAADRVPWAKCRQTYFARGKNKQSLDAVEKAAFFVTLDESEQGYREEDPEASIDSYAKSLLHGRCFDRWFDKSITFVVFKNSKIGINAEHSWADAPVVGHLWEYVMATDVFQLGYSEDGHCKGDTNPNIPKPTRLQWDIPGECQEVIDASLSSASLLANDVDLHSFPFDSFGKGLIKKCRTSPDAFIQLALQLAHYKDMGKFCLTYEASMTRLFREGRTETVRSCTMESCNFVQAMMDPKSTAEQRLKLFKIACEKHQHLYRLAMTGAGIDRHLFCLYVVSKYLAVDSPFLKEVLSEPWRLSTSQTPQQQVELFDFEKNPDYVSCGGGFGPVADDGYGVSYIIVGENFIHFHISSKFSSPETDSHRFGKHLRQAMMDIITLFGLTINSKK
The experiment is described as follows: Inhibition of CPT in fresh rat liver mitochondrial preparations. The class given is biochemical, Fischer rats. To be noted: rat liver mitochondria, 50 μM [14C]palmitoyl-CoA, 10 mM L-carnitine, 37° C., 1 minute. As to the method:
100 μl of a mitochondrial suspension, containing 50 μM of [^14C] palmitoyl-CoA (spec.act. 10000 dpm/mole) and 10 mM of L-carnitine, are incubated at 37° C. in the presence of stepped concentrations (0-3 mM) of product under examination.
(§1) The IC50 is then determined.

Experiment [2] concerns the target T2, CPT1 heart (Rattus norvegicus, UniProt Q63704).
T2 construct: fresh mitochondrial preparations obtained from the liver or heart of Fischer rats; from tissue; host or cells: heart mitochondria of Fischer rats
T2 sequence (Q63704 1-772): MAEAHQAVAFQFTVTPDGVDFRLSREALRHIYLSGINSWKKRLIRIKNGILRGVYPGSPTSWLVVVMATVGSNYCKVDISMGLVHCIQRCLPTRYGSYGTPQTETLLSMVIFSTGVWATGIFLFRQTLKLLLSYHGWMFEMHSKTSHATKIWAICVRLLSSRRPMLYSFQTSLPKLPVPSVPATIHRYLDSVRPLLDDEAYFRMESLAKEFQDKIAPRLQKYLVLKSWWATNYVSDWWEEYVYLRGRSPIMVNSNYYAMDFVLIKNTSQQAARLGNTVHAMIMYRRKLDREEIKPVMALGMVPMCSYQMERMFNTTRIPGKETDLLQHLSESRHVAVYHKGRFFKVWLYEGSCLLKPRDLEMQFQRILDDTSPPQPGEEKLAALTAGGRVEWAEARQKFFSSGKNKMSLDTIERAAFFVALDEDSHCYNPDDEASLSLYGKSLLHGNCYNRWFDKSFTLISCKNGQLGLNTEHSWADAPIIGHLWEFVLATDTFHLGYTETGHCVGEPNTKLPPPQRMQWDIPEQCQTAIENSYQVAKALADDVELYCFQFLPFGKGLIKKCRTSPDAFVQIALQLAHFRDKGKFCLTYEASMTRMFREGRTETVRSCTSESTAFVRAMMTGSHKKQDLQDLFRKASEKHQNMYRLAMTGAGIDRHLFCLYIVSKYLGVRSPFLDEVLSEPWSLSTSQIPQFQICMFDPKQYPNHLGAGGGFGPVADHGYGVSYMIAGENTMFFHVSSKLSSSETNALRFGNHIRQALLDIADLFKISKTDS
As to the kind of experiment: Inhibition of CPT in fresh rat heart mitochondrial preparations. The class given is biochemical, Fischer rats. To be noted: rat heart mitochondria, 50 μM [14C]palmitoyl-CoA, 10 mM L-carnitine, 37° C., 1 minute. As to the method: The inhibition of CPT was evaluated on fresh mitochondrial preparations obtained from the liver or heart of Fischer rats, fed normally; the mitochondria taken from the liver or heart are suspended in a 75 mM sucrose buffer, EGTA 1 mM, pH 7.5. 100 μl of a mitochondrial suspension, containing 50 μM of [^14C] palmitoyl-CoA (spec.act. 10000 dpm/mole) and 10 mM of L-carnitine, are incubated at 37° C. in the presence of stepped concentrations (0-3 mM) of product under examination.
as §1

In experiment [3] the test system is CPT-1 in the hypothalamus. To be noted: intracerebroventricular (icv) administration; Nature Medicine, 2003, 9(6), 756-761; cited from earlier work.

For orientation: IC50 means the concentration needed to halve the response being measured. For `CCCCCCCCCCCCCCNC(=O)N[C@H](CC(=O)O)CN(C)C` [ST2837, (R)-4-(dimethylamino)-3-(tetradecylcarbamoyl)-amino-butyric Acid], the IC50 in experiment [1] was 5.7 µM; in experiment [2], 70 µM.

For `CCCCCCCCCCCCCCNC(=O)N[C@H](CC(=O)[O-])C[N+](C)(C)C` [ST1326, R-4-trimethyl ammonium-3-(tetradecylcarbamoyl)-aminobutyrate], the values for the IC50 in experiment [1] and in experiment [2] were 0.36 µM and 48.8 µM, respectively. In experiment [3], the “food intake and gluconeogenesis” value is “significantly and consistently reducing”.
